{"source": "patent US7858635B2", "about": "(priority 2005, dated 2010)", "key": {"M4 muscarinic receptor": {"biological_target": "T1, M4 muscarinic receptor (Homo sapiens, UniProt P08173)", "T1 construct": "expressed in transfected cells; host or cells: CHO cells (M4-CHO, under puromycin, zeocin and blasticidin selection)", "T1 sequence (P08173 1-479)": "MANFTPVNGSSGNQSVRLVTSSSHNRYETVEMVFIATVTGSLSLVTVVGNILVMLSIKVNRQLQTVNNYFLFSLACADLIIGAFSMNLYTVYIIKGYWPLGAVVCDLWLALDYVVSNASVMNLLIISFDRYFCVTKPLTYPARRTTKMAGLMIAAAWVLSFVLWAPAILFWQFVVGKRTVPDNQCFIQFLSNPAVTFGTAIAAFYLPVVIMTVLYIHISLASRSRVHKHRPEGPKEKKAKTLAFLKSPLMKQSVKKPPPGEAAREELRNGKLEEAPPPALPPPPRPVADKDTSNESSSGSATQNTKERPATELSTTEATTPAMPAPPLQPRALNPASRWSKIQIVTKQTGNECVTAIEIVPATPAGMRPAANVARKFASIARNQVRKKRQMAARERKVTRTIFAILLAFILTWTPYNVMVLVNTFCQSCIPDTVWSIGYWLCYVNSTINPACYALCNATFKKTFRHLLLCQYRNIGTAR", "experiment": "Functional mobilization of intracellular calcium (FLIPR, Fluo-3), M4-CHO cells", "type": "cell-based", "details": "for Emax: 100% efficacy is the maximum response obtained with the Carbachol control, read-out: M4 Efficacy", "method_in_brief": "(§1)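 CHO lines stably carrying the muscarinic subtype, dye-loaded with Fluo-3 at 37° C for 60-90 min, receive test compound in 0.5% DMSO. Agonist effects are read directly; antagonist effects against carbachol at EC80 after 15 min pre-incubation.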"}, "M1 muscarinic receptor": {"biological_target": "T2, M1 muscarinic receptor (Homo sapiens, UniProt P11229)", "T2 construct": "expressed in transfected cells; host or cells: CHO cells (M1-CHO, under zeocin and G418 selection)", "T2 sequence (P11229 1-460)": "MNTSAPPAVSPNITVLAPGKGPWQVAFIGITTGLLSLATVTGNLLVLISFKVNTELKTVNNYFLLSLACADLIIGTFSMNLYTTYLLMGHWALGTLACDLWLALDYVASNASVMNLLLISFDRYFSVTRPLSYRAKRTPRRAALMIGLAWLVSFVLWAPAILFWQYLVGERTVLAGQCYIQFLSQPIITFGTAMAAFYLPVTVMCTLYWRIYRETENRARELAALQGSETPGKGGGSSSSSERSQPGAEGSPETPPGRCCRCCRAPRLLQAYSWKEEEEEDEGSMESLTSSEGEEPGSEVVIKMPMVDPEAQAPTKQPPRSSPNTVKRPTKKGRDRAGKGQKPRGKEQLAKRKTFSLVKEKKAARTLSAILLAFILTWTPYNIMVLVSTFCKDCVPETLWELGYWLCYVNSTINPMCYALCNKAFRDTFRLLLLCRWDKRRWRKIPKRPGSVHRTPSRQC", "experiment": "Functional mobilization of intracellular calcium (FLIPR, Fluo-3), M1-CHO cells", "type": "cell-based", "details": "for Emax: 100% efficacy is the maximum response obtained with the Carbachol control, read-out: M1 Efficacy", "method_in_brief": "as §1"}, "[1]": {"details": "compound nos. 1-454, M4-CHO cells, calcium mobilization"}, "[2]": {"details": "compound nos. 1-454, M1-CHO cells, calcium mobilization"}}, "note": "Like-named read-outs stand apart in the source and are kept apart here."}
{"smiles": "CC(=O)N1CC2(CCN(C3CCN(C(=O)O[C@H]4CCOC4)CC3)CC2)c2cc(C)ccc21", "note": "[compound 398]", "values": [{"measurement": "M4 Activity", "setting": "M4 muscarinic receptor; compound nos. 1-454", "result": "+ (activity was measured to be greater than or equal to 4.0 μM)"}, {"measurement": "Emax", "setting": "M4 muscarinic receptor; compound nos. 1-454", "result": "< 55", "unit": "%"}, {"measurement": "M1 Activity", "setting": "M1 muscarinic receptor; compound nos. 1-454", "result": "++ (activity was measured to be between 0.7 μM and 3.0 μM)"}, {"measurement": "Emax", "setting": "M1 muscarinic receptor; compound nos. 1-454", "result": "< 65", "unit": "%"}]}
{"smiles": "CC(=O)N[C@H]1CC2(CCN(C3CC4CCC(C4)C3)CC2)c2ccccc21", "note": "(stereo partly drawn) [compound 337]", "values": [{"measurement": "Emax", "setting": "M4 muscarinic receptor; compound nos. 1-454", "result": "< 55", "unit": "%"}, {"measurement": "M4 Activity", "setting": "M4 muscarinic receptor; [1]", "result": "+ (activity was measured to be greater than or equal to 4.0 μM)"}, {"measurement": "Emax", "setting": "M1 muscarinic receptor; compound nos. 1-454", "result": "< 65", "unit": "%"}, {"measurement": "M1 Activity", "setting": "M1 muscarinic receptor; [2]", "result": "+ (activity was measured to be greater than or equal to 3.0 μM)"}]}
{"smiles": "CC(=O)N1CC2(CCN(CC3CCCC3)CC2)c2cc(F)ccc21", "note": "[compound 187]", "values": [{"measurement": "Emax", "setting": "M4 muscarinic receptor; compound nos. 1-454", "result": "55 to 70", "unit": "%"}, {"measurement": "M4 Activity", "setting": "M4 muscarinic receptor; [1]", "result": "+ (activity was measured to be greater than or equal to 4.0 μM)"}, {"measurement": "Emax", "setting": "M1 muscarinic receptor; compound nos. 1-454", "result": "65 to 85", "unit": "%"}, {"measurement": "M1 Activity", "setting": "M1 muscarinic receptor; [2]", "result": "++ (activity was measured to be between 0.7 μM and 3.0 μM)"}]}
{"smiles": "O=C1Nc2ccccc2C12CCN(C1CC3CCC1C3)CC2", "note": "(stereo not drawn) [compound 259]", "values": [{"measurement": "Emax", "setting": "M4 muscarinic receptor; compound nos. 1-454", "result": "< 55", "unit": "%"}, {"measurement": "M4 Activity", "setting": "M4 muscarinic receptor; [1]", "result": "+ (activity was measured to be greater than or equal to 4.0 μM)"}, {"measurement": "Emax", "setting": "M1 muscarinic receptor; compound nos. 1-454", "result": "65 to 85", "unit": "%"}, {"measurement": "M1 Activity", "setting": "M1 muscarinic receptor; [2]", "result": "+ (activity was measured to be greater than or equal to 3.0 μM)"}]}
{"smiles": "CCOC(=O)N1CCC(N2CCC3(CC2)CN(C(=O)C(C)(C)C)c2ccc(F)cc23)CC1", "note": "[compound 282]", "values": [{"measurement": "Emax", "setting": "M4 muscarinic receptor; compound nos. 1-454", "result": "55 to 70", "unit": "%"}, {"measurement": "M4 Activity", "setting": "M4 muscarinic receptor; [1]", "result": "++ (activity was measured to be between 0.1 μM and 4.0 μM)"}, {"measurement": "Emax", "setting": "M1 muscarinic receptor; compound nos. 1-454", "result": "< 65", "unit": "%"}, {"measurement": "M1 Activity", "setting": "M1 muscarinic receptor; [2]", "result": "+++ (activity was measured to be less than or equal to 0.7 μM)"}]}
{"smiles": "CN([C@H]1CC2(CCN(C[C@H]3C[C@H]4CC[C@H]3C4)CC2)c2ccccc21)S(C)(=O)=O", "note": "[compound 357]", "values": [{"measurement": "Emax", "setting": "M4 muscarinic receptor; compound nos. 1-454", "result": "< 55", "unit": "%"}, {"measurement": "M4 Activity", "setting": "M4 muscarinic receptor; [1]", "result": "+ (activity was measured to be greater than or equal to 4.0 μM)"}, {"measurement": "Emax", "setting": "M1 muscarinic receptor; compound nos. 1-454", "result": "< 65", "unit": "%"}, {"measurement": "M1 Activity", "setting": "M1 muscarinic receptor; [2]", "result": "++ (activity was measured to be between 0.7 μM and 3.0 μM)"}]}
{"smiles": "CC(=O)N1CC2(CCN(C3CCN(c4cncc(C)n4)CC3)CC2)c2ccccc21", "note": "[compound 470]", "values": [{"measurement": "Emax", "setting": "M4 muscarinic receptor; compound nos. 455-509", "result": "25 to 100", "unit": "%"}, {"measurement": "M4 Activity", "setting": "M4 muscarinic receptor; compounds 455-509", "result": "++ (activity was measured to be between 2.0 μM and 5.0 μM)"}, {"measurement": "Emax", "setting": "M1 muscarinic receptor; compound nos. 455-509", "result": "> 100", "unit": "%"}, {"measurement": "M1 Activity", "setting": "M1 muscarinic receptor; compounds 455-509", "result": "+++ (activity was measured to be less than or equal to 2.0 μM)"}]}
{"smiles": "CC(=O)N[C@@H]1CC2(CCN([C@@H]3C[C@@H]4CC[C@@H]3C4)CC2)c2ccccc21", "note": "[compound 323]", "values": [{"measurement": "Emax", "setting": "M4 muscarinic receptor; compound nos. 1-454", "result": "55 to 70", "unit": "%"}, {"measurement": "M4 Activity", "setting": "M4 muscarinic receptor; [1]", "result": "+ (activity was measured to be greater than or equal to 4.0 μM)"}, {"measurement": "Emax", "setting": "M1 muscarinic receptor; compound nos. 1-454", "result": "65 to 85", "unit": "%"}, {"measurement": "M1 Activity", "setting": "M1 muscarinic receptor; [2]", "result": "++ (activity was measured to be between 0.7 μM and 3.0 μM)"}]}
{"smiles": "COCCOC(=O)N1C2CCC1CC(N1CCC3(CC1)CN(C(=O)N(C)C)c1ccc(F)cc13)C2", "note": "(stereo not drawn) [compound 119, 2-methoxyethyl 3-(1-(dimethylcarbamoyl)-5-fluorospiro[indoline-3,4′-piperidine]-1′-yl)-8-azabicyclo[3.2.1]octane-8-carboxylate]", "values": [{"measurement": "Emax", "setting": "M4 muscarinic receptor; compound nos. 1-454", "result": "< 55", "unit": "%"}, {"measurement": "M4 Activity", "setting": "M4 muscarinic receptor; [1]", "result": "+ (activity was measured to be greater than or equal to 4.0 μM)"}, {"measurement": "Emax", "setting": "M1 muscarinic receptor; compound nos. 1-454", "result": "< 65", "unit": "%"}, {"measurement": "M1 Activity", "setting": "M1 muscarinic receptor; [2]", "result": "+++ (activity was measured to be less than or equal to 0.7 μM)"}]}
{"smiles": "CCOC(=O)N1CCC(N2CCC3(CC2)CN(C(C)=O)c2ccc(-c4ccc(C(C)=O)cc4)cc23)CC1", "note": "[compound 221]", "values": [{"measurement": "Emax", "setting": "M4 muscarinic receptor; compound nos. 1-454", "result": "< 55", "unit": "%"}, {"measurement": "M4 Activity", "setting": "M4 muscarinic receptor; [1]", "result": "+ (activity was measured to be greater than or equal to 4.0 μM)"}, {"measurement": "Emax", "setting": "M1 muscarinic receptor; compound nos. 1-454", "result": "65 to 85", "unit": "%"}, {"measurement": "M1 Activity", "setting": "M1 muscarinic receptor; [2]", "result": "++ (activity was measured to be between 0.7 μM and 3.0 μM)"}]}
{"smiles": "Fc1ccc2c(c1)C1(CCN(C3CCOCC3)CC1)CN2", "note": "[compound 299]", "values": [{"measurement": "Emax", "setting": "M4 muscarinic receptor; compound nos. 1-454", "result": "55 to 70", "unit": "%"}, {"measurement": "M4 Activity", "setting": "M4 muscarinic receptor; [1]", "result": "+ (activity was measured to be greater than or equal to 4.0 μM)"}, {"measurement": "Emax", "setting": "M1 muscarinic receptor; compound nos. 1-454", "result": "65 to 85", "unit": "%"}, {"measurement": "M1 Activity", "setting": "M1 muscarinic receptor; [2]", "result": "+ (activity was measured to be greater than or equal to 3.0 μM)"}]}
{"smiles": "CCOC(=O)N1C2CCC1CC(N1CCC3(CC1)CN(C(=O)C1CC1)c1ccc(F)cc13)C2", "note": "(stereo not drawn) [compound 214]", "values": [{"measurement": "Emax", "setting": "M4 muscarinic receptor; compound nos. 1-454", "result": "< 55", "unit": "%"}, {"measurement": "M4 Activity", "setting": "M4 muscarinic receptor; [1]", "result": "+ (activity was measured to be greater than or equal to 4.0 μM)"}, {"measurement": "Emax", "setting": "M1 muscarinic receptor; compound nos. 1-454", "result": "< 65", "unit": "%"}, {"measurement": "M1 Activity", "setting": "M1 muscarinic receptor; [2]", "result": "+ (activity was measured to be greater than or equal to 3.0 μM)"}]}
